In ChEMBL document CHEMBL6078616, “Seven-membered N-heterocycles as approved drugs and promising leads in medicinal chemistry as well as the metal-free domino access to their scaffolds” (Eur J Med Chem, 2024):

Tests used:
HeLa = assay: cells; conditions: Homo sapiens
Description: Antiproliferative activity against human HeLa cells assessed as reduction in cell viability

[1] = biological target: T1, Protein deacetylase HDAC6 (Homo sapiens, UniProt Q9UBN7); assay: Inhibition of HDAC6 (unknown origin)
T1 sequence (Q9UBN7 whole entry): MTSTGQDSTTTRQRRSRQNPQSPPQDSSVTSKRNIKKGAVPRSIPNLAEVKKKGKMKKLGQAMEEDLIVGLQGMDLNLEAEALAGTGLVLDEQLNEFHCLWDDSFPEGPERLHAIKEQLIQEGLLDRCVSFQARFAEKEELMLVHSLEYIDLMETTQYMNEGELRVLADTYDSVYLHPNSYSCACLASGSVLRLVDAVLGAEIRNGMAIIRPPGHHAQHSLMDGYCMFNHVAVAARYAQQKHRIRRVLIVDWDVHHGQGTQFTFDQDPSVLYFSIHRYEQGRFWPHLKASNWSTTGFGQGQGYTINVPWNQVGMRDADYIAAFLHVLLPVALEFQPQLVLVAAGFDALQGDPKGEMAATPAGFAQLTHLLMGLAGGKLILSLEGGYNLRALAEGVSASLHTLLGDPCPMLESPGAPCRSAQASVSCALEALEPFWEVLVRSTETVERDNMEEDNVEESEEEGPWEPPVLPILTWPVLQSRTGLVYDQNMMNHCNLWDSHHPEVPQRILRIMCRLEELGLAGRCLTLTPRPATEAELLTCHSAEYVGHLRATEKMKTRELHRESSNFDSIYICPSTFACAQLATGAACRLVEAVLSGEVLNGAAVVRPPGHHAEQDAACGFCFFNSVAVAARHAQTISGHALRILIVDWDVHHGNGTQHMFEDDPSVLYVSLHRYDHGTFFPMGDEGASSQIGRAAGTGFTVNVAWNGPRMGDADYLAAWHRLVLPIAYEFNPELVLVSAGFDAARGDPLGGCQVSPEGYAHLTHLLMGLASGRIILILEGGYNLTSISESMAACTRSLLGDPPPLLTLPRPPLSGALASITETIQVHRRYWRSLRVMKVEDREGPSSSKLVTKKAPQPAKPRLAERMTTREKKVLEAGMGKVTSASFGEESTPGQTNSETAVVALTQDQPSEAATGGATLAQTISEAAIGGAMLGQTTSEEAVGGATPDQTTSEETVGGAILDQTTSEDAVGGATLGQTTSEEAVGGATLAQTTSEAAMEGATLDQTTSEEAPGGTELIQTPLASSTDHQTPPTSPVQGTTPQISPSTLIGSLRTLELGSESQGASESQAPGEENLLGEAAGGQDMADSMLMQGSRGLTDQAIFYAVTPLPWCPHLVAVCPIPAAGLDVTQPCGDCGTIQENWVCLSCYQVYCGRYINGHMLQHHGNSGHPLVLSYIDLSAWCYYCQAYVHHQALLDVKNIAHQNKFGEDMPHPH

[2] = Cytotoxicity against African green monkey Vero cells assessed as reduction in cell viability incubated for 72 hrs by MTT assay; type: toxicity, cell-based; conditions: chlorocebus sabaeus
[3] = Cytotoxicity against human THP-1 cells assessed as reduction in cell viability; type: toxicity, cell-based
Trypanosoma cruzi = assay: Antitrypanosomal activity against Trypanosoma cruzi Y strain trypomastigotes […] in African green monkey Vero cells assessed as inhibition of parasite growth incubated for 24 hrs by Neubauer chamber based analysis; type: functional, organism-based
Leishmania infantum = assay: Antileishmanial activity against Leishmania infantum promastigote assessed as reduction in parasite growth after 72 hrs by MTT assay; type: functional, organism-based
[4] = biological target: Sigma intracellular receptor 2 (Homo sapiens, UniProt Q5BJF2); assay: Binding affinity to TMEM97 (unknown origin) assessed as inhibition constant
Sequence of Sigma intracellular receptor 2 (Q5BJF2 whole entry): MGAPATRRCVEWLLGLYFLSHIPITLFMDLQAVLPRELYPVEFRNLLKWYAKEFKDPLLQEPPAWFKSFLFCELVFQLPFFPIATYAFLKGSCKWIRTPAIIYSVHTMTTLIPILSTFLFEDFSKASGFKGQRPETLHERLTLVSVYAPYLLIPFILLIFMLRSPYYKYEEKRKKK

Histone deacetylase 11 = biological target: T2, Histone deacetylase 11 (Homo sapiens, UniProt Q96DB2); assay: Inhibition of HDAC11 (unknown origin)
T2 sequence (Q96DB2 whole entry): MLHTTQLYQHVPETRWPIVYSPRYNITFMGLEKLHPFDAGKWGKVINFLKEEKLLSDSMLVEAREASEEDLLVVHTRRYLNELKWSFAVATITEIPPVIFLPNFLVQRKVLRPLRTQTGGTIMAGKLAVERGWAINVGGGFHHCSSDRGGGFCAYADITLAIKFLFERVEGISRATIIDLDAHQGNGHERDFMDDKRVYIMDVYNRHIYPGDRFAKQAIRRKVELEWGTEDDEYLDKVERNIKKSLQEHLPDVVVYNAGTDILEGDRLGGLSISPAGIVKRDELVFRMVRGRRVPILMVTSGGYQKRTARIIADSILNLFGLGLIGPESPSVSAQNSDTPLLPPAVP

Histone deacetylase 8 = biological target: T3, Histone deacetylase 8 (Homo sapiens, UniProt Q9BY41); assay: Inhibition of HDAC8 (unknown origin)
T3 sequence (Q9BY41 whole entry): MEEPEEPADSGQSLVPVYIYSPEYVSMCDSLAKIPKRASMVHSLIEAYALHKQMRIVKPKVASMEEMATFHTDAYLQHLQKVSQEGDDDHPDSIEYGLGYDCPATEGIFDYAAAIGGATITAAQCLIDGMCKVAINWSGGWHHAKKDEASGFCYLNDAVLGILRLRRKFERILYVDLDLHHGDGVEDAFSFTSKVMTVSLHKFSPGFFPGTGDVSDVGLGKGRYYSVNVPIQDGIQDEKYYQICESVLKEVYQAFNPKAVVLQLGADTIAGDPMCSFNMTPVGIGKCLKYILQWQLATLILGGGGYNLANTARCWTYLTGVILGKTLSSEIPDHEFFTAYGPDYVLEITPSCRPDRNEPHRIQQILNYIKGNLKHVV

Histone deacetylase 4 = Histone deacetylase 4 (Homo sapiens, UniProt P56524); assay: Inhibition of HDAC4 (unknown origin)
Sequence of Histone deacetylase 4 (P56524 whole entry): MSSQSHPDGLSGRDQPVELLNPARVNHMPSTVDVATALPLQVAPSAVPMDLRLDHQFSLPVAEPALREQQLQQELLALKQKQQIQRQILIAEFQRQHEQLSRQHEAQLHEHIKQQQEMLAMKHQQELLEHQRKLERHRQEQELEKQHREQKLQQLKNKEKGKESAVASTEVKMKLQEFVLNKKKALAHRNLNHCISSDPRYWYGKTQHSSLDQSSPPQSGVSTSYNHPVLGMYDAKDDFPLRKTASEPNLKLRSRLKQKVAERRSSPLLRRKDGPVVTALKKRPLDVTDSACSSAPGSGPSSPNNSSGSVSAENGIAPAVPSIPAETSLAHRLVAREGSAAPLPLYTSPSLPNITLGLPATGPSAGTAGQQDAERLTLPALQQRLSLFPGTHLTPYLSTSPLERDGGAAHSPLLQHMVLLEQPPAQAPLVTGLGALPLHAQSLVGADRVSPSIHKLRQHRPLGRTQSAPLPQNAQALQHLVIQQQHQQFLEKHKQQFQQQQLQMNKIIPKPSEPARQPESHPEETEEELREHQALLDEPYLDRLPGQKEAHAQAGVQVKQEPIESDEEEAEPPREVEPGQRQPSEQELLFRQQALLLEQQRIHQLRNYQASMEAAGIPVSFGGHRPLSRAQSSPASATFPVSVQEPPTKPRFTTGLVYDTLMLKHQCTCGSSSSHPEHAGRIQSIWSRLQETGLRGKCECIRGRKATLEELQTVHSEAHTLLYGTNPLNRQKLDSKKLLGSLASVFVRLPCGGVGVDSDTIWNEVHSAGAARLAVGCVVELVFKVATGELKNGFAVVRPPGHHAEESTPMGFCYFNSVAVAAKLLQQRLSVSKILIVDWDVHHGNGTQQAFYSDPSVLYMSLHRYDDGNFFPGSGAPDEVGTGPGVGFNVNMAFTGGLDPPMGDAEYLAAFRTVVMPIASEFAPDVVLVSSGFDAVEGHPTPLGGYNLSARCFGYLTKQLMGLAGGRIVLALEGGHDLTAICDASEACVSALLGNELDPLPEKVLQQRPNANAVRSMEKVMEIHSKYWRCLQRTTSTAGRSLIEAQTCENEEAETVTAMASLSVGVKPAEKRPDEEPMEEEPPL

Histone deacetylase 1 = Histone deacetylase 1 (Homo sapiens, UniProt Q13547); assay: Inhibition of HDAC1 (unknown origin)
Sequence of Histone deacetylase 1 (Q13547 whole entry): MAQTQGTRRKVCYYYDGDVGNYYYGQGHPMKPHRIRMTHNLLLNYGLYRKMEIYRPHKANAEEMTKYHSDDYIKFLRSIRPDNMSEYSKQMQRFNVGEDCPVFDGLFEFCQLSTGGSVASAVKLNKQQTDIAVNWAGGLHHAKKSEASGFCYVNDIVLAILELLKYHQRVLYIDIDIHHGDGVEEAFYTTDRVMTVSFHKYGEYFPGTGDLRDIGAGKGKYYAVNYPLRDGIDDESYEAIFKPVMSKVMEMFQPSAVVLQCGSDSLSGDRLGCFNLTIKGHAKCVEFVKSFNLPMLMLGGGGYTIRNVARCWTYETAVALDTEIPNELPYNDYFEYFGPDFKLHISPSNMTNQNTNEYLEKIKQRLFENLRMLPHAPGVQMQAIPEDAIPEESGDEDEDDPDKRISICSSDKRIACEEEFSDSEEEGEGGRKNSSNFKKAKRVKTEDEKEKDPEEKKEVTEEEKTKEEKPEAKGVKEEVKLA

Histone deacetylase 3 = Histone deacetylase 3 (Homo sapiens, UniProt O15379); assay: Inhibition of HDAC3 (unknown origin)
Sequence of Histone deacetylase 3 (O15379 whole entry): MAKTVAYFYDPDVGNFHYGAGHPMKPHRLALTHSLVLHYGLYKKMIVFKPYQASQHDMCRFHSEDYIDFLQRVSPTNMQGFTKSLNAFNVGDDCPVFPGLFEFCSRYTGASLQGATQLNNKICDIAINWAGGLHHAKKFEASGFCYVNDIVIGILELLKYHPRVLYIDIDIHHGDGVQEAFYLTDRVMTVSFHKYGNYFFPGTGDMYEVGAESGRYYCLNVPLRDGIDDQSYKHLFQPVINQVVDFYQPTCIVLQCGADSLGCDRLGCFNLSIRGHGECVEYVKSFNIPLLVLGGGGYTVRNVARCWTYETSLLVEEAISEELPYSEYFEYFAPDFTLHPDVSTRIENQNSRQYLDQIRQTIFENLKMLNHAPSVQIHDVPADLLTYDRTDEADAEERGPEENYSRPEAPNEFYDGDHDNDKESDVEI

[5] = biological target: T4, Polyamine deacetylase HDAC10 (Homo sapiens, UniProt Q969S8); assay: Inhibition of HDAC10 (unknown origin)
T4 sequence (Q969S8 whole entry): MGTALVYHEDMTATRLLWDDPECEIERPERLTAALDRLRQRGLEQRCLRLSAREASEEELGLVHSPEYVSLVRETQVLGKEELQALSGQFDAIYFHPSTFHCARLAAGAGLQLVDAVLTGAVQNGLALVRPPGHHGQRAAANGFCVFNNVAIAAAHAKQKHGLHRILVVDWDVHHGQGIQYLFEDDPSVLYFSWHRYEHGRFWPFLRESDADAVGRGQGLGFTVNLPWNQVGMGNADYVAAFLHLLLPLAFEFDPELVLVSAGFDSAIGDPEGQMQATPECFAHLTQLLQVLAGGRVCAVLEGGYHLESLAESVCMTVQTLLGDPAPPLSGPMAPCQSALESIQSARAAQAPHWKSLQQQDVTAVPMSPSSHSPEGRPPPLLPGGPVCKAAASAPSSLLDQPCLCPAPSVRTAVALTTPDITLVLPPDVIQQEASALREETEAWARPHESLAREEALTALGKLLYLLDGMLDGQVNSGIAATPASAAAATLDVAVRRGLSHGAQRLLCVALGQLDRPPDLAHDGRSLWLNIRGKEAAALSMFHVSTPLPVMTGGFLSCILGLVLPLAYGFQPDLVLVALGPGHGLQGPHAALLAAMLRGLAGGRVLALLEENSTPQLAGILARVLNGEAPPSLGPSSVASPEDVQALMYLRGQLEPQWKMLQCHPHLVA

Histone deacetylase 5 = Histone deacetylase 5 (Homo sapiens, UniProt Q9UQL6); assay: Inhibition of HDAC5 (unknown origin)
Sequence of Histone deacetylase 5 (Q9UQL6 whole entry): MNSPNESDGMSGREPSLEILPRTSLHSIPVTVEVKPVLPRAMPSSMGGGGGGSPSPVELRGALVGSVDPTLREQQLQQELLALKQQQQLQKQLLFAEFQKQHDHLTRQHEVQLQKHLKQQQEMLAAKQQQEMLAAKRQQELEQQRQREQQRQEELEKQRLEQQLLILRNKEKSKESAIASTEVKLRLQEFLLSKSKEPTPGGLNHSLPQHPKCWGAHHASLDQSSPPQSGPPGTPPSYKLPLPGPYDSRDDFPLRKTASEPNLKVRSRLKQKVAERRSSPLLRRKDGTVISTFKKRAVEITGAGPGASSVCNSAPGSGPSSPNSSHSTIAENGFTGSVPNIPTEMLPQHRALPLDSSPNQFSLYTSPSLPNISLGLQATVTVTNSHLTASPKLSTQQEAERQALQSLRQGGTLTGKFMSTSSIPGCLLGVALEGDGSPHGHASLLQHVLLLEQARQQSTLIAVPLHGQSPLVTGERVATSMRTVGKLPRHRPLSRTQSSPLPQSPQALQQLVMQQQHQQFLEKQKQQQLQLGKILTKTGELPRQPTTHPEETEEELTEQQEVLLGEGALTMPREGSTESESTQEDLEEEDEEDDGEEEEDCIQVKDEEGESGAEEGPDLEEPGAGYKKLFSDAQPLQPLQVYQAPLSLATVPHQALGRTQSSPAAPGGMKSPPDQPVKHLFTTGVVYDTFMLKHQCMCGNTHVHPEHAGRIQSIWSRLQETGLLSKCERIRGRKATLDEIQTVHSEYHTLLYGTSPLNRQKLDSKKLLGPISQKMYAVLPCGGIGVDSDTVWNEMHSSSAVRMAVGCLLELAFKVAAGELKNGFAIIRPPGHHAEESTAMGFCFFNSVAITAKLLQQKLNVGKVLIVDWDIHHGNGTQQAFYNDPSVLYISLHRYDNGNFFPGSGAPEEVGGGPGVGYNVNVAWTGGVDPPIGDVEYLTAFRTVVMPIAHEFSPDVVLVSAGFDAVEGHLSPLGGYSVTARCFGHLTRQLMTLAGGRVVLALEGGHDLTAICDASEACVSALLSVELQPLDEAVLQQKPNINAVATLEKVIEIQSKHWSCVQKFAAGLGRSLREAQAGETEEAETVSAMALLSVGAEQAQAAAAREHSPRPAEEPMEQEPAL

Histone deacetylase 9 = Histone deacetylase 9 (Homo sapiens, UniProt Q9UKV0); assay: Inhibition of HDAC9 (unknown origin)
Sequence of Histone deacetylase 9 (Q9UKV0 whole entry): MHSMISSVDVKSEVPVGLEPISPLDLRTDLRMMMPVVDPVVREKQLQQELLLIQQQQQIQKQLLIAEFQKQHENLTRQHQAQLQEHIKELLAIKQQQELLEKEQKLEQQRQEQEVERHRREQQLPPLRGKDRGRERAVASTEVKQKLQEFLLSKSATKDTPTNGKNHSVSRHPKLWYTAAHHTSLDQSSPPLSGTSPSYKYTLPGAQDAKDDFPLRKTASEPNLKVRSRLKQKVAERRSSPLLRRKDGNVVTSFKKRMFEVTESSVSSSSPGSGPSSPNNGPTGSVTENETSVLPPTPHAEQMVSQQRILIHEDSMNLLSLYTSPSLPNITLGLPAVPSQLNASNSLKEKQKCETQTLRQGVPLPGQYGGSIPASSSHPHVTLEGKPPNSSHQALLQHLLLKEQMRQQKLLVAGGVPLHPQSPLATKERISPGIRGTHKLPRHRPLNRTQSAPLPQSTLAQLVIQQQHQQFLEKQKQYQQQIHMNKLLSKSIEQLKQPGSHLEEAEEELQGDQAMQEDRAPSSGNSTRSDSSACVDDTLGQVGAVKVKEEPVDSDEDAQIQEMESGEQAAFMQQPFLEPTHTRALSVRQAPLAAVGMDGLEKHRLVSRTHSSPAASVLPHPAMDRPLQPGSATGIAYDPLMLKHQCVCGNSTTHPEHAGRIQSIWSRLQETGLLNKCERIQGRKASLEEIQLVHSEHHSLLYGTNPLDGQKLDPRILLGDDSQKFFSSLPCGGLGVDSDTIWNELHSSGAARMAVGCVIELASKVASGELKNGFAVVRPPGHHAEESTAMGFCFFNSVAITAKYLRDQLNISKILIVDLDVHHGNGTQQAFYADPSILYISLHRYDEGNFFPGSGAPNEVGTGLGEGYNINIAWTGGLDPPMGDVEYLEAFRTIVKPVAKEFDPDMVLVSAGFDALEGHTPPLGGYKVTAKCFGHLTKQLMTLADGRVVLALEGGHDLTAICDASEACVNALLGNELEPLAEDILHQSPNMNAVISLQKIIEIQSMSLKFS

Compound | CC50 at 72 h [2] [µM] | CC50 [3] [µM] | IC50 (Trypanosoma cruzi) [µM] | IC50 (Leishmania infantum) [µM] | other results
O=C1Cc2cnn(-c3cc(Cl)cc(Cl)c3)c2-c2ccccc2N1 | – | – | – | – | IC50 (HeLa): 1.32 µM
O=C(NO)c1ccc(CN2c3ccccc3S(=O)(=O)C[C@H]3CCCC[C@H]32)cc1 | – | – | – | – | IC50 [1]: 0.1 µM
O=C1Cc2cnn(-c3cccc(Br)c3)c2-c2ccccc2N1 | – | – | – | – | IC50 (HeLa): 1.32 µM
COc1cccc([C@@H]2C[C@H]3Cc4cc(Br)c5ccccc5c4N2O3)c1 | > 1520 | > 1520 | 11.9 | 40.1 | –
O[C@@H]1Cc2cc(Br)c3ccccc3c2N[C@H](c2cccc(Cl)c2Cl)C1 | 40.1 | 59.8 | 3.3 | 11.8 | –
Brc1ccc([C@@H]2C[C@H]3Cc4ccc5ccccc5c4N2O3)s1 | > 809 | > 809 | 8.3 | 21.6 | –
FC(F)(F)c1ccc(-c2ccc3c(c2)C2CC3CCN2C2CCCC2)cc1 (centres undefined) | – | – | – | – | Ki [4]: 0.061 µM
OCCCN1CCC2CC1c1cc(-c3ccc(C(F)(F)F)cc3)ccc12 (centres undefined) | – | – | – | – | Ki [4]: 0.046 µM
Cc1ccccc1[C@@H]1C[C@H](O)Cc2ccc3ccccc3c2N1 | 36.1 | 41.6 | 2.5 | 36.2 | –
Cc1ccc([C@@H]2C[C@H]3Cc4ccc5ccccc5c4N2O3)s1 | 498 | > 977 | 11.3 | 10.9 | –
O=C1Cc2cnn(-c3cc(Cl)cc(Cl)c3)c2-c2cc(Br)ccc2N1 | – | – | – | – | IC50 (HeLa): 1.32 µM
O=C(NO)c1ccc(CN2c3ccccc3SC[C@H]3CCCCC[C@H]32)cc1 | – | – | – | – | IC50 (Histone deacetylase 11): 1.2 µM; IC50 (Histone deacetylase 8): 6.7 µM; IC50 [1]: 0.03 µM; IC50 (Histone deacetylase 4): > 30 µM; IC50 (Histone deacetylase 1): > 30 µM; IC50 (Histone deacetylase 3): > 30 µM; IC50 [5]: > 30 µM; IC50 (Histone deacetylase 5): > 30 µM; IC50 (Histone deacetylase 9): > 30 µM
CN1CCN(c2ccc3c(c2)C2CC3CCN2C(=O)OCc2ccc(F)cc2)CC1 (centres undefined) | – | – | – | – | Ki [4]: 0.011 µM
O[C@@H]1Cc2cc(Br)c3ccccc3c2N[C@H](c2ccccc2Cl)C1 | 16 | 11.1 | 11.1 | 8.9 | –
CCN1CCN(c2ccc3c(c2)C2CCN(C(=O)OCc4ccccc4)C3C2)CC1 (centres undefined) | – | – | – | – | Ki [4]: 0.116 µM
O=[N+]([O-])c1ccc([C@@H]2C[C@H]3Cc4ccc5ccccc5c4N2O3)cc1 | > 903 | > 903 | 8.6 | 5 | –
Cc1ccc([C@@H]2C[C@H]3Cc4ccc5ccccc5c4N2O3)o1 | 94.5 | 22.5 | 9.6 | 15.4 | –
Cc1ccccc1[C@@H]1C[C@H](O)Cc2cc(Br)c3ccccc3c2N1 | 113 | 7.1 | 7.1 | 7.7 | –
O=[N+]([O-])c1ccc([C@@H]2C[C@H]3Cc4ccc5ccccc5c4N2O3)o1 | 85.4 | 931 | 8.6 | 13.9 | –
O[C@@H]1Cc2cc(Br)c3ccccc3c2N[C@H](c2cccc(Cl)c2)C1 | 10 | 45.1 | 6.3 | 48.2 | –
O[C@@H]1Cc2cc(Br)c3ccccc3c2N[C@H](c2ccccc2)C1 | 25.3 | 24 | 12.2 | 617 | –
C[C@@H]1[C@H](O)[C@@H](C)/C=C/C=C/C=C/C=C/C=C/C=C/C=C/[C@H](O[C@@H]2O[C@H](C)[C@@H](O)[C@H](N)[C@@H]2O)C[C@@H]2O[C@](O)(C[C@@H](O)C[C@@H](O)[C@H](O)CC[C@@H](O)C[C@@H](O)CC(=O)O[C@H]1C)C[C@H](O)[C@H]2C(=O)O [AMPHOTERICIN B] | – | – | – | 0.01 | –
O=C1Cc2c([nH]c3ccc(Br)cc23)-c2ccccc2N1 [KENPAULLONE] | – | – | – | – | IC50 (HeLa): > 2 µM
CC1CS(=O)(=O)CCN1/N=C/c1ccc([N+](=O)[O-])o1 (centres undefined) [NIFURTIMOX] | 67.5 | – | – | – | –
COC(=O)Nc1nc2cc(C(=O)c3cccs3)ccc2[nH]1 [NOCODAZOLE] | – | – | – | – | IC50 (HeLa): > 2 µM
